Activity calls are given as the source filed them.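 How the source made its calls: active means compound whose rising-signal curve crosses activity 40 at or below its top valid dose; inconclusive means flat curve holding activity 30 to 70, or poor fit; inactive means the rest.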
Test system: Huh7 miR-21 level, qRT-PCR, 48 h
Experiment: effect on endogenous miR-21 levels, dose response, selectivity assay for miR-122 activator project, cell-based, Huh7, qRT-PCR, dry powder (AID 720727)

Structure (SMILES) | AC40
COCC(=O)N(C)C[C@H]1Oc2cc(C#Cc3cccnc3)ccc2S(=O)(=O)N([C@H](C)CO)C[C@H]1C | 4.22 µM
CN(C)CCCOc1nn(Cc2ccccc2)c2ccccc12 | 11.4 µM
CN1C(=O)c2cc(NC(=O)c3cccc(F)c3)ccc2OC[C@H]2O[C@@H](CC(=O)O)CC[C@@H]21 | 32.5 µM
CN1C(=O)c2cc(NC(=O)c3cccc(F)c3)ccc2OC[C@H]2O[C@@H](CC(=O)O)CC[C@H]21 | 11.7 µM
CNC[C@@H]1Oc2cc(C#CC3CCCCC3)ccc2S(=O)(=O)N([C@@H](C)CO)C[C@@H]1C | 29.2 µM
CN(CC(=O)Nc1cccc(Cl)c1)S(=O)(=O)c1ccc2c(c1)n(C)c(=O)c(=O)n2C | 29.8 µM
COCC(=O)N(C)C[C@H]1Oc2cc(-c3ccccc3F)ccc2S(=O)(=O)N([C@H](C)CO)C[C@H]1C | 18.8 µM
C[C@H]1CN([C@@H](C)CO)C(=O)c2cc(-c3ccc(C#N)cc3)cnc2O[C@H]1CN(C)C(=O)c1ccccc1 | 30.6 µM
Cc1cc(C(C)(C)C)cc(S(=O)(=O)NCCc2ccncc2)c1C | 33.5 µM
Cc1cccc(NC(=O)Nc2ccc3c(c2)C(=O)N(C)[C@@H]2CC[C@H](CC(=O)NCc4ccccc4Cl)O[C@H]2CO3)c1 | 17.9 µM
COc1ccc(S(=O)(=O)N(C)C[C@@H]2Oc3ncc(/C=C/c4ccccc4)cc3C(=O)N([C@@H](C)CO)C[C@@H]2C)cc1 | 14.9 µM
CCOC(=O)N1CCC(NC(=O)c2ccc3c(c2)sc2nc(-c4ccccc4)cn23)CC1 | 17.5 µM
COCC(=O)N(C)C[C@@H]1Oc2ncc(-c3ccc(C#N)cc3)cc2C(=O)N([C@@H](C)CO)C[C@@H]1C | 18.4 µM
O=C(CN=C1NS(=O)(=O)c2ccccc21)Nc1ccccc1N1CCCCCC1 | 28.4 µM
CCn1cc(C(=O)O)c(=O)c2cc(F)c(N3CCNCC3)nc21 | > 35 µM (inactive)

Reference: PubChem BioAssay AID720727 (Broad Institute, 2013)
